Measurements from the supplement of paper PMC10307832.

Assays:
Experiment in all cases: relative viability (nuclei count vs DMSO), 5 days (fraction); higher = more cells survive
[1] = compound: COC1=CC=C(C=C1)CN2C=CC3=C2C=C(C=C3)C(=O)NO + COc1cccc2cc(-c3nc([C@H]4CC[C@H](C(=O)O)CC4)n4ncnc(N)c34)[nH]c12 [OSI-027] (partner 0.5 µM)
Method in brief: (§1)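 Lung cancer cell lines in 1536-well plates got either a single drug or a fixed anchor-drug dose together with five library-drug doses (not always all listed) in √10 steps, by pin tool, on the day after seeding. Nuclei were counted after 5 days, and relative viability is the treated-to-vehicle ratio of nuclei counts. Values are medians of duplicate plates.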

Veliparib + Dasatinib = compound: C[C@]1(c2nc3c(C(N)=O)cccc3[nH]2)CCCN1 [Veliparib] + Cc1nc(Nc2ncc(C(=O)Nc3c(C)cccc3Cl)s2)cc(N2CCN(CCO)CC2)n1 [Dasatinib] (partner 0.075 µM)
Method in brief: as §1

Veliparib + Lapatinib = compound: C[C@]1(c2nc3c(C(N)=O)cccc3[nH]2)CCCN1 [Veliparib] + CS(=O)(=O)CCNCc1ccc(-c2ccc3ncnc(Nc4ccc(OCc5cccc(F)c5)c(Cl)c4)c3c2)o1 [Lapatinib] (partner 2 µM)
Method in brief: as §1

[2] = compound: COC1=CC=C(C=C1)CN2C=CC3=C2C=C(C=C3)C(=O)NO + CS(=O)(=O)N1CCN(Cc2cc3nc(-c4cccc5[nH]ncc45)nc(N4CCOCC4)c3s2)CC1 [Pictilisib] (partner 1 µM)
Method in brief: as §1

Cell Line	relative viability ([1]; first compound 0.08 µM)	relative viability ([1]; first compound 0.253 µM)	relative viability ([1]; first compound 0.8 µM)	relative viability ([1]; first compound 2.53 µM)	relative viability ([1]; first compound 8 µM)	relative viability (Veliparib + Dasatinib; first compound 0.02 µM)	relative viability (Veliparib + Dasatinib; first compound 0.06325 µM)	relative viability (Veliparib + Dasatinib; first compound 0.2 µM)	relative viability (Veliparib + Dasatinib; first compound 0.6325 µM)	relative viability (Veliparib + Dasatinib; first compound 2 µM)	relative viability (Veliparib + Lapatinib; first compound 0.02 µM)	relative viability (Veliparib + Lapatinib; first compound 0.06325 µM)	relative viability (Veliparib + Lapatinib; first compound 0.2 µM)	relative viability (Veliparib + Lapatinib; first compound 0.6325 µM)	relative viability (Veliparib + Lapatinib; first compound 2 µM)	relative viability ([2]; first compound 0.08 µM)	relative viability ([2]; first compound 0.253 µM)	relative viability ([2]; first compound 0.8 µM)	relative viability ([2]; first compound 2.53 µM)	relative viability ([2]; first compound 8 µM)
NCI-H2342	0.61	0.66	0.603	0.57	0.655	0.293	0.297	0.299	0.321	0.288	–	–	–	–	–	–	–	–	–	–
HOP-62	0.729	0.888	0.909	0.871	0.758	0.634	0.549	0.705	0.648	0.651	1.14	0.878	0.951	0.99	1.12	0.249	0.885	0.988	0.908	0.396
BEN	0.27	0.296	0.288	0.318	0.291	0.232	0.292	0.377	0.361	0.266	0.445	0.72	0.777	0.824	0.81	0.504	0.589	0.582	0.544	0.499
NCI-H647	0.531	0.752	0.49	0.634	0.492	0.164	0.187	0.243	0.165	0.192	1.24	0.986	0.973	1	1.16	–	0.42	0.523	0.373	0.308
NCI-H2085	0.888	0.754	0.746	0.982	0.731	0.239	0.213	0.262	0.252	0.246	0.473	0.684	0.677	0.782	0.637	0.44	0.491	0.53	0.492	0.426
NCI-H2347	0.479	0.433	0.473	0.481	0.402	0.327	0.266	0.275	0.336	0.315	0.962	0.917	0.897	1.01	0.944	0.494	0.652	0.596	–	0.462
NCI-H2228	–	0.536	0.594	0.729	0.473	0.51	0.509	0.508	0.357	0.467	0.968	0.889	1.11	0.96	1.06	0.375	0.326	0.536	0.46	0.251
NCI-H2009	0.647	0.714	0.619	0.618	0.491	0.332	0.319	0.331	0.29	0.292	0.748	0.903	0.909	0.815	1.03	0.601	0.836	0.91	0.788	0.604
IA-LM	–	–	–	–	–	–	–	–	–	–	0.85	0.561	0.771	0.846	1.04	0.296	0.388	0.373	0.371	0.23
NCI-H358	–	0.861	0.722	0.739	0.67	0.0991	0.156	0.169	0.131	0.152	–	0.464	0.503	0.393	0.452	–	0.429	0.422	0.337	0.296
SK-LU-1	0.358	0.316	0.34	0.284	0.352	0.185	0.173	0.175	0.17	0.187	0.868	0.835	0.966	0.823	1.02	0.468	0.586	0.613	0.517	0.505
LCLC-97TM1	0.346	0.531	0.546	0.342	0.374	0.848	0.845	0.895	0.653	0.864	0.734	0.828	1.45	–	1.22	–	0.283	0.205	0.227	0.123
NCI-H322M	–	0.529	0.555	0.397	0.487	–	0.231	0.246	0.27	0.253	0.722	0.602	0.629	0.61	0.471	–	0.542	0.544	0.501	0.45
NCI-H1623	0.435	0.727	0.468	0.43	0.376	–	0.458	0.598	0.524	0.462	–	–	–	–	–	–	–	–	–	–
EMC-BAC-2	0.371	0.371	0.425	0.381	0.33	0.362	0.27	0.333	0.305	0.315	0.863	0.85	0.867	0.86	0.884	0.448	0.549	0.555	0.553	0.466
NCI-H1355	–	0.409	0.463	0.457	0.38	–	0.676	0.682	0.611	0.524	–	0.882	0.999	0.939	0.968	0.156	0.501	0.489	0.498	0.372
Calu-6	–	–	–	–	–	–	–	–	–	–	1.14	0.985	0.96	0.971	0.989	0.426	0.946	0.981	0.969	0.826

Cell Line	relative viability ([1]; first compound 0.08 µM)	relative viability ([1]; first compound 0.253 µM)	relative viability ([1]; first compound 0.8 µM)	relative viability ([1]; first compound 2.53 µM)	relative viability ([1]; first compound 8 µM)	relative viability (Veliparib + Dasatinib; first compound 0.02 µM)	relative viability (Veliparib + Dasatinib; first compound 0.06325 µM)	relative viability (Veliparib + Dasatinib; first compound 0.2 µM)	relative viability (Veliparib + Dasatinib; first compound 0.6325 µM)	relative viability (Veliparib + Dasatinib; first compound 2 µM)	relative viability (Veliparib + Lapatinib; first compound 0.02 µM)	relative viability (Veliparib + Lapatinib; first compound 0.06325 µM)	relative viability (Veliparib + Lapatinib; first compound 0.2 µM)	relative viability (Veliparib + Lapatinib; first compound 0.6325 µM)	relative viability (Veliparib + Lapatinib; first compound 2 µM)	relative viability ([2]; first compound 0.08 µM)	relative viability ([2]; first compound 0.253 µM)	relative viability ([2]; first compound 0.8 µM)	relative viability ([2]; first compound 2.53 µM)	relative viability ([2]; first compound 8 µM)
NCI-H661	–	0.78	0.727	0.658	0.625	0.886	0.846	0.777	0.86	0.869	0.413	0.483	0.56	0.447	0.533	–	0.358	0.35	0.375	0.318
NCI-H1975	0.724	0.703	0.742	0.723	0.638	0.336	0.37	0.331	0.368	0.372	0.843	0.765	0.831	0.873	0.911	0.304	0.297	0.281	0.299	0.252
COR-L23	0.647	0.829	0.795	0.772	0.686	0.428	0.434	0.361	0.425	0.471	0.795	0.81	0.802	0.982	0.978	0.496	0.788	0.714	0.727	0.711
HCC-15	0.625	0.715	0.672	0.742	0.529	–	0.524	0.629	0.603	0.582	0.706	0.893	0.779	0.849	0.891	0.522	0.743	0.866	0.833	0.741
NCI-H1651	0.682	0.764	0.758	0.622	0.627	0.296	0.403	0.383	0.4	0.348	0.557	0.755	0.92	0.835	0.775	0.572	0.427	0.606	0.65	0.452
CAL-12T	0.723	0.643	0.563	0.71	0.642	0.287	0.354	0.386	0.308	0.468	0.649	0.706	0.647	0.593	0.781	0.244	–	0.527	0.377	0.283
NCI-H1703	–	–	–	–	–	–	–	–	–	–	1.11	0.922	1.35	0.982	1.2	–	0.259	0.221	0.256	0.147
NCI-H1648	0.246	0.245	0.246	0.262	0.246	–	–	–	–	–	–	–	–	–	–	–	–	–	–	–
EBC-1	–	–	–	–	–	–	–	–	–	–	0.205	0.21	0.208	0.201	0.244	0.351	0.514	0.401	0.424	0.338
ChaGo-K-1	–	0.623	0.675	0.504	0.378	0.336	0.615	0.566	0.624	0.584	–	–	–	–	–	–	0.655	0.801	0.706	0.462
NCI-H441	0.715	0.709	0.644	0.621	0.459	0.502	0.572	0.591	0.558	0.691	–	–	–	–	–	0.344	0.613	0.548	0.572	0.438
A549	–	–	–	–	–	–	–	–	–	–	1.12	0.93	0.978	0.869	0.957	0.446	0.585	0.504	0.502	0.472
HCC-44	0.465	0.453	0.498	0.554	0.454	–	–	–	–	–	0.986	0.85	1.01	0.933	1.07	0.547	0.746	0.616	0.568	0.547
SW 900	0.559	0.533	0.63	0.622	0.447	–	–	0.538	0.644	0.696	–	–	–	–	–	–	–	–	–	–
LCLC-103H	0.441	0.529	0.534	0.388	0.397	0.5	0.469	0.449	0.495	0.482	–	–	–	–	–	0.526	0.621	0.586	0.648	0.532
NCI-H1299	–	–	–	–	–	–	–	–	–	–	0.972	0.944	0.951	0.956	0.978	0.834	1.03	0.77	0.658	0.593
NCI-H522	–	0.611	0.746	0.733	0.718	0.887	0.904	0.963	0.831	0.812	–	–	–	–	–	–	–	–	–	–
